Literature values, collected in patent US12384770B2, “Heterocyclic compound” (Takeda Pharmaceutical Company Limited, priority 2019, dated 2025).

System: tauopathy mouse model
Settings: cited from earlier work

In the case of `CN1CCc2c(c3ccccc3n2Cc2ccc(C(=O)NO)cc2)C1` [Tubastatin A], the acetylation of tubulin is listed as “increases acetylation of tubulin” and the therapeutic effectiveness is listed as “shows therapeutic effectiveness”.
